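Cultured in 96-well plates, cells were exposed to test compound for 48 hours across five concentrations. GI50 = concentration required for 50% inhibition of growth. TGI denotes the concentration required for complete inhibition of growth.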
Tested on: 786-0 renal
Assay: DTP human tumour cell line panel, 48 h

| SMILES | GI50 [µM] | TGI [µM] |
| --- | --- | --- |
| CC1=C(C(=O)Nc2ccc(F)c(Cl)c2)C(c2ccccc2O)NC(=S)N1 (configuration not stated) | > 50 | > 50 |
| c1ccc(N=C(N2CCCC2)N(CCN2CCCC2)c2ccccc2)cc1 | – | > 100 |
| Cc1cc(C)c2c(n1)sc1c(Nc3ccc(Cl)cc3)ncnc12 | < 0.01 | – |
| Cc1ccc(-c2c(C#N)c(-c3ccc(C)cc3)n(NS(=O)(=O)c3ccccc3)c(=O)c2C#N)cc1 | – | > 100 |
| C[n+]1c2ccc(Cl)cc2nc2cc(-c3ccccc3)ccc21 | – | > 100 |
| COc1cc(C2C3C=CC=C4CC=CC(=C43)C3CCC(=O)N32)cc(OC)c1OC (configuration not stated) | – | > 100 |

Tested on: A498 renal
Assay: DTP human tumour cell line panel, 48 h

| SMILES | GI50 [µM] | TGI [µM] |
| --- | --- | --- |
| Cc1cc(C)c2c(n1)sc1c(Nc3ccc(Cl)cc3)ncnc12 | < 0.0133 | 0.491 |
| Cc1ccc(-c2c(C#N)c(-c3ccc(C)cc3)n(NS(=O)(=O)c3ccccc3)c(=O)c2C#N)cc1 | – | > 100 |
| COc1cc(C2C3C=CC=C4CC=CC(=C43)C3CCC(=O)N32)cc(OC)c1OC (configuration not stated) | – | > 100 |

Tested on: A549 NSCLC
Assay: DTP human tumour cell line panel, 48 h

| SMILES | GI50 [µM] | TGI [µM] |
| --- | --- | --- |
| CC1=C(C(=O)Nc2ccc(F)c(Cl)c2)C(c2ccccc2O)NC(=S)N1 (configuration not stated) | 19.6 | > 50 |
| c1ccc(N=C(N2CCCC2)N(CCN2CCCC2)c2ccccc2)cc1 | – | > 100 |
| Cc1cc(C)c2c(n1)sc1c(Nc3ccc(Cl)cc3)ncnc12 | < 0.01 | > 100 |
| Cc1ccc(-c2c(C#N)c(-c3ccc(C)cc3)n(NS(=O)(=O)c3ccccc3)c(=O)c2C#N)cc1 | – | > 100 |
| C[n+]1c2ccc(Cl)cc2nc2cc(-c3ccccc3)ccc21 | – | 47.7 |
| COc1cc(C2C3C=CC=C4CC=CC(=C43)C3CCC(=O)N32)cc(OC)c1OC (configuration not stated) | – | > 100 |

Tested on: ACHN renal
Assay: DTP human tumour cell line panel, 48 h

| SMILES | GI50 [µM] | TGI [µM] |
| --- | --- | --- |
| CC1=C(C(=O)Nc2ccc(F)c(Cl)c2)C(c2ccccc2O)NC(=S)N1 (configuration not stated) | > 50 | > 50 |
| c1ccc(N=C(N2CCCC2)N(CCN2CCCC2)c2ccccc2)cc1 | – | > 100 |
| Cc1cc(C)c2c(n1)sc1c(Nc3ccc(Cl)cc3)ncnc12 | < 0.01 | > 51.2 |
| Cc1ccc(-c2c(C#N)c(-c3ccc(C)cc3)n(NS(=O)(=O)c3ccccc3)c(=O)c2C#N)cc1 | – | > 100 |
| C[n+]1c2ccc(Cl)cc2nc2cc(-c3ccccc3)ccc21 | – | 39.7 |
| COc1cc(C2C3C=CC=C4CC=CC(=C43)C3CCC(=O)N32)cc(OC)c1OC (configuration not stated) | – | > 100 |

Tested on: BT-549 breast
Assay: DTP human tumour cell line panel, 48 h

| SMILES | GI50 [µM] | TGI [µM] |
| --- | --- | --- |
| CC1=C(C(=O)Nc2ccc(F)c(Cl)c2)C(c2ccccc2O)NC(=S)N1 (configuration not stated) | 19.2 | 49.4 |
| c1ccc(N=C(N2CCCC2)N(CCN2CCCC2)c2ccccc2)cc1 | – | 84.5 |
| Cc1cc(C)c2c(n1)sc1c(Nc3ccc(Cl)cc3)ncnc12 | < 0.0161 | > 100 |
| Cc1ccc(-c2c(C#N)c(-c3ccc(C)cc3)n(NS(=O)(=O)c3ccccc3)c(=O)c2C#N)cc1 | – | > 100 |
| C[n+]1c2ccc(Cl)cc2nc2cc(-c3ccccc3)ccc21 | – | 25.5 |

Tested on: CAKI-1 renal
Assay: DTP human tumour cell line panel, 48 h

| SMILES | GI50 [µM] | TGI [µM] |
| --- | --- | --- |
| CC1=C(C(=O)Nc2ccc(F)c(Cl)c2)C(c2ccccc2O)NC(=S)N1 (configuration not stated) | 45.8 | > 50 |
| c1ccc(N=C(N2CCCC2)N(CCN2CCCC2)c2ccccc2)cc1 | – | > 100 |
| Cc1cc(C)c2c(n1)sc1c(Nc3ccc(Cl)cc3)ncnc12 | < 0.01 | > 27.6 |
| Cc1ccc(-c2c(C#N)c(-c3ccc(C)cc3)n(NS(=O)(=O)c3ccccc3)c(=O)c2C#N)cc1 | – | > 100 |
| C[n+]1c2ccc(Cl)cc2nc2cc(-c3ccccc3)ccc21 | – | 37.7 |

Tested on: CCRF-CEM leukemia
Assay: DTP human tumour cell line panel, 48 h

| SMILES | TGI [µM] | GI50 [µM] |
| --- | --- | --- |
| c1ccc(N=C(N2CCCC2)N(CCN2CCCC2)c2ccccc2)cc1 | > 100 | – |
| Cc1cc(C)c2c(n1)sc1c(Nc3ccc(Cl)cc3)ncnc12 | > 100 | < 0.01 |
| Cc1ccc(-c2c(C#N)c(-c3ccc(C)cc3)n(NS(=O)(=O)c3ccccc3)c(=O)c2C#N)cc1 | 77.7 | – |
| C[n+]1c2ccc(Cl)cc2nc2cc(-c3ccccc3)ccc21 | > 100 | – |

Tested on: COLO 205 colon
Assay: DTP human tumour cell line panel, 48 h

| SMILES | GI50 [µM] | TGI [µM] |
| --- | --- | --- |
| CC1=C(C(=O)Nc2ccc(F)c(Cl)c2)C(c2ccccc2O)NC(=S)N1 (configuration not stated) | > 50 | > 50 |
| c1ccc(N=C(N2CCCC2)N(CCN2CCCC2)c2ccccc2)cc1 | – | 75.4 |
| Cc1cc(C)c2c(n1)sc1c(Nc3ccc(Cl)cc3)ncnc12 | 0.0314 | > 100 |
| COc1cc(/C=C/C(=O)c2ccc(O)c(OC)c2)ccc1O | – | 41.2 |

From PubChem BioAssay (NCI)
